Laboratory results as given in ChEMBL document CHEMBL1155520, “Novel 8a-aza-8a-homoerythromycin--4''-(3-substituted-amino)propionates with broad spectrum antibacterial activity” (2010).
≈ marks a conversion by molar mass, not a printed value.

How the values were obtained:
Type in all cases: functional
Streptococcus pneumoniae [1] = assay: Antimicrobial activity against macrolide-resistant Streptococcus pneumoniae Ci137
Haemophilus influenzae = assay: Antimicrobial activity against Haemophilus influenzae ATCC 49247
Streptococcus pneumoniae [2] = assay: Antimicrobial activity against macrolide-sensitive Streptococcus pneumoniae SPO 30
Streptococcus pneumoniae [3] = assay: Antimicrobial activity against inducible macrolide and constitutive lincosamide, streptogramin-resistant Streptococcus pneumoniae 4636
Staphylococcus aureus = assay: Antimicrobial activity against macrolide-sensitive Staphylococcus aureus ATCC 13709
Streptococcus pyogenes [4] = assay: Antimicrobial activity against macrolide-sensitive Streptococcus pyogenes 3665
Streptococcus pyogenes [5] = assay: Antimicrobial activity against inducible macrolide, lincosamide, streptogramin-resistant Streptococcus pyogenes Finland 11

| SMILES | MIC (Streptococcus pneumoniae [1]) [mg/L] | MIC (Haemophilus influenzae) [mg/L] | MIC (Streptococcus pneumoniae [2]) [mg/L] | MIC (Streptococcus pneumoniae [3]) [mg/L] | MIC (Staphylococcus aureus) [mg/L] | MIC (Streptococcus pyogenes [4]) [mg/L] | MIC (Streptococcus pyogenes [5]) [mg/L] |
| --- | --- | --- | --- | --- | --- | --- | --- |
| CC[C@H]1OC(=O)[C@H](C)[C@@H](O[C@H]2C[C@@](C)(OC)[C@@H](OC(=O)CCNCC(=O)Nc3ccc4ccccc4c3)[C@H](C)O2)[C@H](C)[C@@H](O[C@@H]2O[C@H](C)C[C@H](N(C)C)[C@H]2O)[C@](C)(O)C[C@@H](C)NC(=O)[C@H](C)[C@@H](O)[C@]1(C)O | 2 (≈ 1.99 µM) | 4 (≈ 3.99 µM) | < 0.13 | 32 (≈ 31.9 µM) | 4 (≈ 3.99 µM) | < 0.13 | 8 (≈ 7.97 µM) |
| CC[C@H]1OC(=O)[C@H](C)[C@@H](O[C@H]2C[C@@](C)(OC)[C@@H](OC(=O)CCN3CCN(C(=O)c4ccco4)CC3)[C@H](C)O2)[C@H](C)[C@@H](O[C@@H]2O[C@H](C)C[C@H](N(C)C)[C@H]2O)[C@](C)(OC)C[C@@H](C)NC(=O)[C@H](C)[C@@H](O)[C@]1(C)O | 2 (≈ 2.01 µM) | 4 (≈ 4.01 µM) | < 0.13 | 32 (≈ 32.1 µM) | 2 (≈ 2.01 µM) | < 0.13 | 16 (≈ 16 µM) |
| CC[C@H]1OC(=O)[C@H](C)[C@@H](O[C@H]2C[C@@](C)(OC)[C@@H](OC(=O)CCN[C@@H](C)c3ccc([N+](=O)[O-])cc3)[C@H](C)O2)[C@H](C)[C@@H](O[C@@H]2O[C@H](C)C[C@H](N(C)C)[C@H]2O)[C@](C)(OC)C[C@@H](C)NC(=O)[C@H](C)[C@@H](O)[C@]1(C)O | 2 (≈ 2.03 µM) | 32 (≈ 32.5 µM) | < 0.13 | > 32 | 2 (≈ 2.03 µM) | < 0.13 | 4 (≈ 4.07 µM) |
| CC[C@H]1OC(=O)[C@H](C)[C@@H](O[C@H]2C[C@@](C)(OC)[C@@H](OC(=O)CCNCCNc3cccc4ccccc34)[C@H](C)O2)[C@H](C)[C@@H](O[C@@H]2O[C@H](C)C[C@H](N(C)C)[C@H]2O)[C@](C)(OC)C[C@@H](C)NC(=O)[C@H](C)[C@@H](O)[C@]1(C)O | 2 (≈ 1.99 µM) | – | < 0.13 | > 32 | 1 (≈ 0.997 µM) | < 0.13 | 4 (≈ 3.99 µM) |
| CC[C@H]1OC(=O)[C@H](C)[C@@H](O[C@H]2C[C@@](C)(OC)[C@@H](OC(=O)CCNCC(=O)Nc3ccc4cccnc4c3)[C@H](C)O2)[C@H](C)[C@@H](O[C@@H]2O[C@H](C)C[C@H](N(C)C)[C@H]2O)[C@](C)(OC)C[C@@H](C)NC(=O)[C@H](C)[C@@H](O)[C@]1(C)O | 4 (≈ 3.93 µM) | > 32 | < 0.13 | > 32 | 2 (≈ 1.96 µM) | < 0.13 | 16 (≈ 15.7 µM) |
| CC[C@H]1OC(=O)[C@H](C)[C@@H](O[C@H]2C[C@@](C)(OC)[C@@H](OC(=O)CCN[C@@H](C)C(=O)Nc3ccc4ccccc4c3)[C@H](C)O2)[C@H](C)[C@@H](O[C@@H]2O[C@H](C)C[C@H](N(C)C)[C@H]2O)[C@](C)(O)C[C@@H](C)NC(=O)[C@H](C)[C@@H](O)[C@]1(C)O | 0.5 (≈ 0.492 µM) | 2 (≈ 1.97 µM) | < 0.13 | 32 (≈ 31.5 µM) | 2 (≈ 1.97 µM) | < 0.13 | 8 (≈ 7.86 µM) |
| CC[C@H]1OC(=O)[C@H](C)[C@@H](O[C@H]2C[C@@](C)(OC)[C@@H](OC(=O)CCN3CCN(C(=O)c4ccco4)CC3)[C@H](C)O2)[C@H](C)[C@@H](O[C@@H]2O[C@H](C)C[C@H](N(C)C)[C@H]2O)[C@](C)(O)C[C@@H](C)NC(=O)[C@H](C)[C@@H](O)[C@]1(C)O | 2 (≈ 2.03 µM) | 16 (≈ 16.3 µM) | < 0.13 | > 64 | 4 (≈ 4.07 µM) | < 0.13 | 8 (≈ 8.14 µM) |
| CC[C@H]1OC(=O)[C@H](C)[C@@H](O[C@H]2C[C@@](C)(OC)[C@@H](OC(=O)CCN[C@H](C)c3ccc([N+](=O)[O-])cc3)[C@H](C)O2)[C@H](C)[C@@H](O[C@@H]2O[C@H](C)C[C@H](N(C)C)[C@H]2O)[C@](C)(OC)C[C@@H](C)NC(=O)[C@H](C)[C@@H](O)[C@]1(C)O | 2 (≈ 2.03 µM) | 32 (≈ 32.5 µM) | < 0.13 | > 32 | 1 (≈ 1.02 µM) | < 0.13 | 4 (≈ 4.07 µM) |
| CC[C@H]1OC(=O)[C@H](C)[C@@H](O[C@H]2C[C@@](C)(OC)[C@@H](OC(=O)CCN[C@@H](C)C(=O)Nc3ccc([N+](=O)[O-])cc3)[C@H](C)O2)[C@H](C)[C@@H](O[C@@H]2O[C@H](C)C[C@H](N(C)C)[C@H]2O)[C@](C)(O)C[C@@H](C)NC(=O)[C@H](C)[C@@H](O)[C@]1(C)O | 2 (≈ 1.98 µM) | 4 (≈ 3.95 µM) | < 0.13 | 32 (≈ 31.6 µM) | 4 (≈ 3.95 µM) | < 0.13 | 4 (≈ 3.95 µM) |
| CC[C@H]1OC(=O)[C@H](C)[C@@H](O[C@H]2C[C@@](C)(OC)[C@@H](OC(=O)CCNCC(=O)Nc3cnc4ccccc4c3)[C@H](C)O2)[C@H](C)[C@@H](O[C@@H]2O[C@H](C)C[C@H](N(C)C)[C@H]2O)[C@](C)(OC)C[C@@H](C)NC(=O)[C@H](C)[C@@H](O)[C@]1(C)O | 2 (≈ 1.96 µM) | > 32 | < 0.13 | > 32 | 2 (≈ 1.96 µM) | < 0.13 | 16 (≈ 15.7 µM) |
| CC[C@H]1OC(=O)[C@H](C)[C@@H](O[C@H]2C[C@@](C)(OC)[C@@H](OC(=O)CCN[C@@H](C)C(=O)Nc3ccc([N+](=O)[O-])cc3)[C@H](C)O2)[C@H](C)[C@@H](O[C@@H]2O[C@H](C)C[C@H](N(C)C)[C@H]2O)[C@](C)(OC)C[C@@H](C)NC(=O)[C@H](C)[C@@H](O)[C@]1(C)O | 0.5 (≈ 0.487 µM) | 2 (≈ 1.95 µM) | < 0.13 | 16 (≈ 15.6 µM) | 0.5 (≈ 0.487 µM) | < 0.13 | 1 (≈ 0.974 µM) |
| CC[C@H]1OC(=O)[C@H](C)[C@@H](O[C@H]2C[C@@](C)(OC)[C@@H](OC(=O)CCN[C@@H](C)c3ccc([N+](=O)[O-])cc3)[C@H](C)O2)[C@H](C)[C@@H](O[C@@H]2O[C@H](C)C[C@H](N(C)C)[C@H]2O)[C@](C)(O)C[C@@H](C)NC(=O)[C@H](C)[C@@H](O)[C@]1(C)O | 4 (≈ 4.13 µM) | 8 (≈ 8.25 µM) | < 0.13 | 16 (≈ 16.5 µM) | 4 (≈ 4.13 µM) | < 0.13 | 4 (≈ 4.13 µM) |
| CC[C@H]1OC(=O)[C@H](C)[C@@H](O[C@H]2C[C@@](C)(OC)[C@@H](OC(=O)CCNCC(=O)Nc3ccc([N+](=O)[O-])cc3)[C@H](C)O2)[C@H](C)[C@@H](O[C@@H]2O[C@H](C)C[C@H](N(C)C)[C@H]2O)[C@](C)(OC)C[C@@H](C)NC(=O)[C@H](C)[C@@H](O)[C@]1(C)O | 2 (≈ 1.98 µM) | 2 (≈ 1.98 µM) | < 0.13 | 16 (≈ 15.8 µM) | 1 (≈ 0.988 µM) | < 0.13 | 4 (≈ 3.95 µM) |
| CC[C@H]1OC(=O)[C@H](C)[C@@H](O[C@H]2C[C@@](C)(OC)[C@@H](OC(=O)CCNCC(=O)Nc3cccc4ncccc34)[C@H](C)O2)[C@H](C)[C@@H](O[C@@H]2O[C@H](C)C[C@H](N(C)C)[C@H]2O)[C@](C)(OC)C[C@@H](C)NC(=O)[C@H](C)[C@@H](O)[C@]1(C)O | 16 (≈ 15.7 µM) | > 32 | < 0.13 | > 32 | 8 (≈ 7.86 µM) | 0.25 (≈ 0.246 µM) | 32 (≈ 31.4 µM) |
